Experimental data published in patent US5444042A, “Method of treatment of neurodegeneration with calpain inhibitors” (Cortex Pharmaceuticals, priority 1994, dated 1995).
pIC50, pKi: −log10 of the molar value. Where a SMILES comes first, the peptide text is derived from it. The star is where a group is joined. Cbz = O=C(OCc1ccccc1)*; CH2Cl = ClC*

Legend:
Calpain II [1] = assay: Kapp/[I] progress curve method, Calpain II (Table 1C); type: biochemical; design: unit not given here; conditions: Rabbit Calpain II, Suc-leu-tyr-amidomethylcoumarin
Experimental: The Halo-Ketone Peptides, like the substituted isocoumarins, are irreversible inhibitors of Calpain. We determined the Kapp /[I] values for various members of this class of compounds against Calpains I and II. For comparison, we also determined these values against the additional thiol proteases Papain and Cathepsin B for at least one Halo-Ketone Peptide.
We assayed Calpain I and II using Suc-leu-tyr-amidomethylcoumarin. Papain was assayed using benzoyl-arg-4-nitroanilide, and Cathepsin B (bovine) was assayed using CBZ-lys-4-nitrophenyl ester. We followed the progress curve method of Tian and Tsou, Biochemistry, 21:1028-1032 (1982), the disclosure of which is hereby incorporated by reference, to derive kinetic data. Briefly, this method makes use of the equation: [formula] where [P.infin. ] represents the concentration of product formed at a time approaching infinity, A is the Kapp in the presence of substrate (S), K is the Michaelis constant and [Y] is the concentration of the inhibitor. Since [S] and [Y] are known and V and K can be determined, Kapp can be readily determined.

[2] = test system: Calpain in crude brain extracts; assay: Ca2+-stimulated spectrin proteolysis in crude brain extracts (Example 2); type: biochemical; conditions: 100 μM
Procedure, shortened: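 Brain tissue was homogenized in 10 mM Tris pH 7.4, 0.32 M sucrose, 1 mM EGTA and 1 mM DTT, and nuclei and debris were removed. Calpain activity was scored as Ca^2+-stimulated proteolysis of endogenous spectrin.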

N18-RE-105 cells = assay: Glutamate-induced cell death, MTT conversion (Example 5); type: cell-based; conditions: 5 mM glutamate, inhibitor 3 μg/ml, 19 hours
Experimental: Stock cultures of N18-RE-105 cells were maintained in Dulbecco's modified Eagle's medium (DMEM) containing 10% fetal bovine serum (FBS) and supplemented with hypoxanthine, aminopterin and thymidine (HAT). Subconfluent cultures were split and plated into 96-well plates. Twenty-four hours after plating the cells were exposed to fresh media containing glutamate and various concentrations of Calpain inhibitors. Control cells were not treated with glutamate. Conversion of MTT was measured 19 hours later as described. Nineteen hours after the onset of exposure, cell viability was quantitated by measuring the extent to which the cells convert 3(4,5-dimethylthiazol-2-yl)-2-5-diphenyltetrazolium bromide (MTT) to a blue formazan product, which occurs in the mitochondria of living but not dead cells (Pauwels et al., 1988). A higher absorbance is indicative of greater cell viability.

Calpain II [3] = molecular target: T1, Calpain II (Homo sapiens, UniProt P17655); assay: Calpain II 14C-methylated casein proteolysis (Table 1A); type: biochemical
T1 construct: from tissue; purified by a cited method
T1 sequence (P17655 1-700): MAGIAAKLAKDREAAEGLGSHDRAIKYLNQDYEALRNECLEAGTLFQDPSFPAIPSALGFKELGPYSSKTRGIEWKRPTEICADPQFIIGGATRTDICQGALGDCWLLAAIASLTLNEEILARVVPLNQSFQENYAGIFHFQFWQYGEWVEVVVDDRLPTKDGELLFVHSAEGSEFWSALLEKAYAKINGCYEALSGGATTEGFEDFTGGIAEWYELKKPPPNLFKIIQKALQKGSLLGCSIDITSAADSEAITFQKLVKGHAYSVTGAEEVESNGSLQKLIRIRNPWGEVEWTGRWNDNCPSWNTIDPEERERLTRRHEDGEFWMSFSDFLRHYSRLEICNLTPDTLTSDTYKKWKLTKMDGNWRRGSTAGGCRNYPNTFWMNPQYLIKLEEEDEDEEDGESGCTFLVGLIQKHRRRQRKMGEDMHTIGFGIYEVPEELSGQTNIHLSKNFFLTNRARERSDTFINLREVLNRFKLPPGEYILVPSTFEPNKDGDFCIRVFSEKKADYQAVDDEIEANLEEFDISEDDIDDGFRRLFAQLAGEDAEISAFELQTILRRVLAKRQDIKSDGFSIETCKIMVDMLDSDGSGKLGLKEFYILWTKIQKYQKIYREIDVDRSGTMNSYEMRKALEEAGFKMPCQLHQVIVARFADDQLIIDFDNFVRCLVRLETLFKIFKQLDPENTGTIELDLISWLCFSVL
T1 sequence (P04632 1-268 partner): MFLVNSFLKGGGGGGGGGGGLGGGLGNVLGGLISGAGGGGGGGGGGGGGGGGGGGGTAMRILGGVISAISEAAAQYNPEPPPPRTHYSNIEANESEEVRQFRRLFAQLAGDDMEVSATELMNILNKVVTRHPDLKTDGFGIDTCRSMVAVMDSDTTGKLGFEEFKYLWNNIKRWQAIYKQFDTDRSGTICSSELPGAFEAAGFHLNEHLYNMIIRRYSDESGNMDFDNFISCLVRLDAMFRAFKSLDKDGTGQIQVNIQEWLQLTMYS
Experimental: (§1) The isocoumarins are irreversible inhibitors of Calpain. We obtained IC50 values for a variety of these Calpain Inhibitors as a kinetic analysis of these compounds.
(§2) Calpains I and II were purified by the method of (Yoshimura, et al. 1983). (Kitahara 1984) provides an alternative purification scheme. Calpain II may alternatively be purchased from Sigma Chemical Co. as "Calcium Activated Neutral Protease." In this assay, purified Calpain was incubated with ^14 C-methylated casein in the presence of various Heterocyclic Compounds and the amount of acid-soluble radioactivity released by the action of Calpain was measured.

Calpain within platelets = assay: Platelet membrane permeation assay, spectrin proteolysis (Examples 4A, 4B); type: cell-based, rat; conditions: 100 μM, A23187 1 μM
Procedure, shortened: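 Rat (Sprague-Dawley) platelets at 10^7 cells/ml in HEPES buffer pH 7.4, preincubated 5 min with inhibitor, then 5 min with 1 μM A23187 to activate calpain. Spectrin proteolysis assessed by SDS-PAGE and anti-spectrin immunoblot, quantified by densitometry.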

Calpain I = molecular target: T2, Calpain I (Homo sapiens, UniProt P07384); assay: Calpain I 14C-methylated casein proteolysis (Table 1A); type: biochemical
T2 sequence (P07384 1-714): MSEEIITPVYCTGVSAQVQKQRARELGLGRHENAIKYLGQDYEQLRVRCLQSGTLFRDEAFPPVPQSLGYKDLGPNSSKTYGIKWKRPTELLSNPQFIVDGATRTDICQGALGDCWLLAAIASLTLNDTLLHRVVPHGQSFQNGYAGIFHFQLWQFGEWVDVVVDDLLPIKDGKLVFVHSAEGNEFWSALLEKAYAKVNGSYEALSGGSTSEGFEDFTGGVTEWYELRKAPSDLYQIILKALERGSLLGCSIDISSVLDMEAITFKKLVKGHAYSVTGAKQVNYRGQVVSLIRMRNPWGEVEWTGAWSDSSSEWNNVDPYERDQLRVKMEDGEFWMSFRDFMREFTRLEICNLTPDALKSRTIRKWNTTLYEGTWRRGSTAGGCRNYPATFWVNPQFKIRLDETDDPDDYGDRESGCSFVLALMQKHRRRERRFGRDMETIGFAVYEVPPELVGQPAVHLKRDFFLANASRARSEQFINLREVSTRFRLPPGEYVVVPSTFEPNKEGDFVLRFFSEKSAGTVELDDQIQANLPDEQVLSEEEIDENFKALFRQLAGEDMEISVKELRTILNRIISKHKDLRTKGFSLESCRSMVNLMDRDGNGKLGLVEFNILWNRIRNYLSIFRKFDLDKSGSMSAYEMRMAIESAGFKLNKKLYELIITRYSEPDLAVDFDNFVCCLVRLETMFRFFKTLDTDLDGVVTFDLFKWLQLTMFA
T2 sequence (P04632 1-268 partner): T1 sequence (P04632 1-268 partner)
Experimental: as §1, §2

Papain = molecular target: T3, Papain (Carica papaya, UniProt P00784); assay: Papain inhibition, Ki by Dixon plot (Table PKC1); type: biochemical; conditions: 0.05M Tris-HCl pH 7.5, 2 mM EDTA, 5 mM cysteine, 1% DMSO, 25° C., substrate Nα-Benzoyl-Arg-AMC; read-out: Ki P (Papain)
T3 sequence (P00784 134-345): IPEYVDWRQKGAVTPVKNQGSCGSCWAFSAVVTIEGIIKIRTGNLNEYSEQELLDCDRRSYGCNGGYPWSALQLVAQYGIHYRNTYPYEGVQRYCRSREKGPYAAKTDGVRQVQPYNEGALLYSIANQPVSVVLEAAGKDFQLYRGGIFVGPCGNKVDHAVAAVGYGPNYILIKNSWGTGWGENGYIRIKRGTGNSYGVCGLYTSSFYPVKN
Experimental: (§3) Various concentrations of inhibitors in dimethylsulfoxide (DMSO) were added to the assay mixture, which contained buffer and substrate. The reaction was started by the addition of the enzyme and the hydrolysis rates were followed spectrophotometrically or fluorimetrically. 88 mM KH2 PO4, 12 mM Na2 HPO4, 1.33 mM EDTA, 2.7 mM cysteine, pH 6.0 was used as a buffer for cathepsin B; and 20 mM Hepes, 10 mM CaCl2, 10 mM β-mercaptoethanol, pH 7.2 buffer was utilized for calpain I and calpain II.
(§4) All peptide thioester hydrolysis rates were measured with assay mixtures containing 4,4'-dithiodipyridine [e324=19800 M-1 cm-1; Grasetti & Murray, Arch. Biochem. Biophys. 119, pp 41-49 (1967)]. Papain was assayed with Bz-Arg-AMC or Bz-Arg-NA [Kanaoka et al., Chem. Pharm. Bull. 25, 3126-3128 (1977)], and the AMC (7-amino-4-methylcoumarin) release was followed fluorimetrically (excitation at 380 nm, and emission at 460 nm). Cathepsin B was assayed with Z-Arg-Arg-AFC [Barrett and Kirschke, Methods Enzymol. 80, 535-561 (1981)], and the AFC (7-amino-4-trifluoromethylcoumarin) release was followed fluorimetrically (excitation at 400 nm, and emission at 505 nm). Calpain I from human erythrocytes and calpain II from rabbit were assayed using Suc-Leu-Tyr-AMC [Sasaki et al., J. Biol. Chem. 259, 12489-12494 (1984), hereby incorporated by reference], and the AMC (7-amino-4-methylcoumarin) release was followed fluorimetrically (excitation at 380 nm, and emission at 460 nm). Enzymatic hydrolysis rates were measured at various substrate and inhibitor concentrations, and Ki values were determined by Dixon plot.
The inhibition constants for papain shown in Table PKC1 were measured in 0.05M Tris-HCl, pH 7.5 buffer, containing 2 mM EDTA, 5 mM cysteine (freshly prepared), 1% DMSO, at 25° C., using N^α -Benzoyl-Arg-AMC as a substrate, except that those values of inhibition constants for papain marked with an "e" in Table PKC1 were measured in 50 mM Tris-HCl, pH 7.5 buffer, containing 20 mM EDTA, 5 mM cysteine, 9% DMSO, at 25° C., using N^α -Benzoyl-Arg-NA as a substrate.

Cathepsin B = Cathepsin B (Bos taurus, UniProt P07688); assay: Cathepsin B inhibition, Z-Arg-Arg-AFC (Table PKC1); type: biochemical; conditions: pH 6.0 phosphate buffer, substrate Z-Arg-Arg-AFC; read-out: Ki CB (Cathepsin B)
Experimental: as §3, §4

[4] = molecular target: T4, Calpain I from human erythrocytes (Homo sapiens, UniProt P07384); assay: Calpain I inhibition, Suc-Leu-Tyr-AMC (Table PKC1); type: biochemical; conditions: 20 mM Hepes, 10 mM CaCl2, 10 mM β-mercaptoethanol, pH 7.2; read-out: Ki CI (Calpain I)
T4 construct: Calpain I from human erythrocytes and calpain II from rabbit were assayed using Suc-Leu-Tyr-AMC; from tissue; host or cells: human erythrocytes
T4 sequence (P07384 1-714): T2 sequence (P07384 1-714)
T4 sequence (P04632 1-268 partner): T1 sequence (P04632 1-268 partner)
Experimental: as §3, with “Our discovery of Peptide Keto-Compounds effective as Calpain Inhibitors was made through assay of the Peptide Keto-Compounds as reversible inhibitors. Various” for “Various”
as §4

SMILES	Kapp/[I] CII (Calpain II [1])	inhibition of spectrin proteolysis in crude brain extracts [2]	inhibition of Calpain within platelets (Calpain within platelets)	other results
CC(C)CC(NC(=O)CNC(=O)OCc1ccccc1)C(=O)NC(C)C(=O)CCl (stereo not drawn) [Z-Gly-Leu-Ala-CH2 Cl] (Cbz-Gly-Leu-Ala-CH2Cl; configuration not given here)	210000	significant inhibition		
CC(NC(=O)OCc1ccccc1)C(=O)NC(Cc1ccccc1)C(=O)CCl (stereo not drawn) [Z-Ala-Phe-CH2 Cl]	2400			
Cc1ccc(S(=O)(=O)N[C@@H](Cc2ccccc2)C(=O)CCl)cc1 [TPCK, Tosyl-PheCH2 Cl, reference compound]				blue formazan product relative to control without glutamate (N18-RE-105 cells): ≥ 100%
N=C(N)SCCCOc1oc(=O)c2cc(NC(=O)[C@@H](N)Cc3ccccc3)ccc2c1Cl [L-Phe-NH-CiTPrOIC, 7-(L-phenylalanylamino)-4-chloro-3-(3-isothiureidopropoxy)isocoumarin]		significant inhibition	significant inhibition	pIC50 (Calpain II [3]): 4.52
N=C(N)SCCOc1oc(=O)c2cc(NC(=O)NCc3ccccc3)ccc2c1Cl [PhCH2 NHCONH-CiTEtOIC, 7-(benzylcarbamoylamino)-4-chloro-3-(2-isothiureidoethoxy)isocoumarin]		significant inhibition	significant inhibition	pIC50 (Calpain I): 4.05
CCOC(=O)C(=O)C(C)NC(=O)C(C)NC(=O)C(C)NC(=O)OCc1ccccc1 (racemic) [Z-Ala-Ala-DL-Ala-COOEt, Z-Ala-Ala-DL-Ala-CO2 Et]				pKi (Papain): 5.82; pKi (Cathepsin B): 5.66; pKi [4]: 3.70
CC(C)C(NC(=O)OCc1ccccc1)C(=O)NC(Cc1ccccc1)C(=O)CCl (stereo not drawn) [Z-Val-Phe-CH2 Cl] (Cbz-Val-Phe-CH2Cl; configuration not given here)	27200			
N=C(N)SCCOc1oc(=O)c2cc(NC(=O)[C@H](N)Cc3ccccc3)ccc2c1Cl [D-Phe-NH-CiTEtOIC, 7-(D-phenylalanylamino)-4-chloro-3-(2-isothiureidoethoxy)isocoumarin]		significant inhibition	significant inhibition	pIC50 (Calpain I): 3.70
CC(=O)NC(C)C(=O)NC(C)C(=O)NC(C)C(=O)NC(C)C(=O)CCl (stereo not drawn) [Ac-Ala-Ala-Ala-Ala-CH2 Cl] (Ac-AAAA-CH2Cl; configuration not given here)	1300			
